Like-named read-outs stand apart in the source and are kept apart here. *1 amine or outer side, *2 acyl side, *3 side chain or, on linkers, in order; H or OH if unused. Where a SMILES comes first, the peptide text is derived from it. Side-chain parts run from the residue outwards. [ ]: non-standard residue; d: D form. The star is where a group is joined. αMePhe(2-F) = C[C@](N)(Cc1ccccc1F)C(=O)O; C14 diacid = O=C(O)CCCCCCCCCCCCC(=O)*; εLys = N[C@@H](CCCCN[*:1])C(=O)[*:2]; αMeY = C[C@](N)(Cc1ccc(O)cc1)C(=O)O; 4Pal = N[C@@H](Cc1ccncc1)C(=O)O; αMeL = CC(C)C[C@](C)(N)C(=O)O; Orn = NCCC[C@H](N)C(=O)O; AEEA = NCCOCCOCC(=O)O; Aib = CC(C)(N)C(=O)O
How the values were obtained:
Type in all cases: cell-based
[1] = target: T1, hGIPR (Homo sapiens, UniProt P48546); assay: Functional cAMP formation (HTRF) in HEK-293 clonal cells expressing hGIPR, 0.1% bovine casein, without or with 1.0% human serum albumin; details: for EC50: geometric mean, read-out: hGIPR EC50, nM (SEM, n); for Emax: read-out: hGIPR Emax, % ± SEM
T1 construct: expressed in transfected cells
T1 sequence (P48546 22-466): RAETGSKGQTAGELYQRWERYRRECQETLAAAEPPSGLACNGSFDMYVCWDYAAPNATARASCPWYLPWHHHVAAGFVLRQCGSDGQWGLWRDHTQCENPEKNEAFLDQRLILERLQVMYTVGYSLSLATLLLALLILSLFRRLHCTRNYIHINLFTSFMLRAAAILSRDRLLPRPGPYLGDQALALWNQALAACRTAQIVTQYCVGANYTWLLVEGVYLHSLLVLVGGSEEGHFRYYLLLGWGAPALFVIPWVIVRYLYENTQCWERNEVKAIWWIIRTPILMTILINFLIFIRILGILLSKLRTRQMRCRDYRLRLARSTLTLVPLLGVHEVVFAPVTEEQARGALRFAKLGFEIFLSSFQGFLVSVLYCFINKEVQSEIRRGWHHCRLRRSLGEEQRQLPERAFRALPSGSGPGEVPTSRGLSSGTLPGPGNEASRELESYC
Method in brief: (§1)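 Cells were stimulated with peptide for 30 min at 37° C, then lysed in buffer carrying cAMP-d2 and anti-cAMP Eu3+-cryptate for a competitive HTRF read after at least 60 min at room temperature. The 665/620 nm ratio was converted to nM cAMP against a standard curve.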

[2] = target: T2, hGCGR (Homo sapiens, UniProt P47871); assay: Functional cAMP formation (HTRF) in HEK-293 clonal cells expressing hGCGR, 0.1% bovine casein, without or with 1.0% human serum albumin; details: geometric mean, read-out: hGCGR EC50, nM (SEM, n)
T2 construct: expressed in transfected cells
Method in brief: as §1

[3] = target: hGLP-1R (Homo sapiens, UniProt P43220); assay: Functional cAMP formation (HTRF) in HEK-293 clonal cells expressing hGLP-1R, 0.1% bovine casein, without or with 1.0% human serum albumin; design: expressed in transfected cells; details: for EC50: geometric mean, read-out: hGLP-1R EC50, nM (SEM, n); for Emax: read-out: hGLP-1R Emax, % ± SEM
Method in brief: as §1

[4] = 0.1% bovine casein and 1.0% human serum albumin, 37° C.
[5] = HEK293, 0.1% bovine casein and 1.0% human serum albumin, 37° C., percent of maximal response to GIP(1-42)NH2
[6] = cAMP, incubated at 37° C., 0.1% bovine casein (no human serum albumin)
[7] = cAMP, 37° C., 0.1% bovine casein (no human serum albumin)

Chain of hGLP-1R (P43220 24-463): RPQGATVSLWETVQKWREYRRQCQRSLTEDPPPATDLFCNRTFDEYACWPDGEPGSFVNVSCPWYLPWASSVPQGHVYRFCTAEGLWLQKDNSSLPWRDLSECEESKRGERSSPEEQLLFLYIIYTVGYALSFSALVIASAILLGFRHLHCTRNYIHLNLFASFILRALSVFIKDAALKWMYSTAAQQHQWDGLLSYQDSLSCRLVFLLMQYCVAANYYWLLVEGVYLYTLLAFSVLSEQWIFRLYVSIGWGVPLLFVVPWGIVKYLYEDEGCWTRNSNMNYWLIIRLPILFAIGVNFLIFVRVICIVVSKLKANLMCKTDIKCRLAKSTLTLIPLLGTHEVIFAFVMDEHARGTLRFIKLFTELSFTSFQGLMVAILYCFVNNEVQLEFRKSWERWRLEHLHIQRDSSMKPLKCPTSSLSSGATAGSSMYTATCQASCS
T2 sequence (P47871 26-477): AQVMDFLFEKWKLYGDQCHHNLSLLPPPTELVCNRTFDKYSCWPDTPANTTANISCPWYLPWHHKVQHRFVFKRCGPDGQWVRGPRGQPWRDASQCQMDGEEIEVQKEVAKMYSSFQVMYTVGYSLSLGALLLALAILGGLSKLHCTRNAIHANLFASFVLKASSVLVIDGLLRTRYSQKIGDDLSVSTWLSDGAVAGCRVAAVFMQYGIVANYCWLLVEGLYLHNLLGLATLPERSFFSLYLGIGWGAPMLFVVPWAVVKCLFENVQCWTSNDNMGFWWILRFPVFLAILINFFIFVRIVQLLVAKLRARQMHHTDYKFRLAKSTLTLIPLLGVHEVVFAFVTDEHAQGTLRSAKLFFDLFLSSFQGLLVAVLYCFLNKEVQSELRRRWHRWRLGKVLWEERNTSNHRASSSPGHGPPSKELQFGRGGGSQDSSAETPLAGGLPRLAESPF

Row | EC50 [1, 4] [nM] | Emax ([1]; HEK293, percent of maximal response to GIP(1-42)NH2, 37° C., 0.1% bovine casein, arithmetic mean) [%] | EC50 [1, 6] [nM] | EC50 [2, 6] [nM] | Emax ([3]; HEK293, percent of maximal response to GLP-1(7-36)NH2, 37° C., 0.1% bovine casein, arithmetic mean) [%] | EC50 [3, 6] [nM] | Compound | Emax [1, 5] [%] | EC50 [2, 4] [nM] | EC50 [3, 4] [nM] | Emax ([1]; HEK293, cAMP, 37° C., 0.1% bovine casein, percent of maximal response to GIP(1-42)NH2, arithmetic mean) [%] | EC50 [1, 7] [nM] | EC50 [2, 7] [nM] | Emax ([3]; HEK293, 0.1% bovine casein and 1.0% human serum albumin, 37° C., percent of maximal response to GLP-1(7-36)NH2) [%] | Emax ([3]; HEK293, cAMP, 37° C., 0.1% bovine casein, percent of maximal response to GLP-1(7-36)NH2, arithmetic mean) [%] | EC50 [3, 7] [nM]
1 | 0.335 | 94.5 ± 0.288 | 0.018 | > 9950 | 95.1 ± 1.74 | 0.419 | CC[C@H](C)[C@H](NC(=O)[C@H](CC(C)C)NC(=O)[C@](C)(Cc1ccc(O)cc1)NC(=O)[C@@H](CCC(=O)O)NC(=O)[C@@H](NC(=O)[C@H](Cc1ccccc1)NC(=O)[C@H](CCC(=O)O)NC(=O)C(C)(C)NC(=O)[C@H](CCC(N)=O)NC(=O)[C@H](C)NC(=O)[C@H](CCCCNC(=O)COCCOCCNC(=O)COCCOCCNC(=O)[C@@H](N)CCCCNC(=O)CCCCCCCCCCCCC(=O)O)NC(=O)[C@H](CCCN)NC(=O)[C@H](CC(=O)O)NC(=O)[C@H](CC(C)C)NC(=O)[C@](C)(CC(C)C)NC(=O)[C@@H](NC(=O)[C@H](CO)NC(=O)[C@H](Cc1ccncc1)NC(=O)[C@H](CC(=O)O)NC(=O)[C@H](CO)NC(=O)[C@@H](NC(=O)[C@](C)(Cc1ccccc1F)NC(=O)[C@@H](NC(=O)CNC(=O)[C@H](CCC(=O)O)NC(=O)C(C)(C)NC(=O)[C@@H](N)Cc1ccc(O)cc1)[C@@H](C)O)[C@@H](C)O)[C@@H](C)CC)[C@@H](C)CC)C(=O)N[C@@H](CCC(=O)O)C(=O)NCC(=O)NCC(=O)N[C@@H](CCCCNC(=O)COCCOCCNC(=O)COCCOCCNC(=O)[C@@H](N)CCCCNC(=O)CCCCCCCCCCCCC(=O)O)C(N)=O [Example 185] (H-Y[Aib]EGT[αMePhe(2-F)]TSD[4Pal]SI[αMeL]LD[Orn]K([AEEA-AEEA-εLys-C14 diacid])AQ[Aib]EFI[dE][αMeY]LIEGGK([AEEA-AEEA-εLys-C14 diacid])-NH2; N-terminus assumed) | 86.2 | > 9950 | 11.3 | – | – | – | – | – | –
2 | – | – | – | – | – | – | CC[C@H](C)[C@H](NC(=O)[C@H](CCCN)NC(=O)[C@H](CC(=O)O)NC(=O)[C@H](CC(C)C)NC(=O)[C@](C)(CC(C)C)NC(=O)[C@@H](NC(=O)[C@H](CO)NC(=O)[C@H](Cc1ccc(OC)cc1)NC(=O)[C@H](CC(=O)O)NC(=O)[C@H](CO)NC(=O)[C@@H](NC(=O)[C@](C)(Cc1ccccc1F)NC(=O)[C@@H](NC(=O)CNC(=O)[C@H](CCC(=O)O)NC(=O)C(C)(C)NC(=O)[C@@H](N)Cc1ccc(O)cc1)[C@@H](C)O)[C@@H](C)O)[C@@H](C)CC)C(=O)N[C@@H](C)C(=O)N[C@@H](CCC(N)=O)C(=O)NC(C)(C)C(=O)N[C@@H](CCCCNC(=O)COCCOCCNC(=O)COCCOCCNC(=O)CC[C@H](NC(=O)CCCCCCCCCCCCC(=O)O)C(=O)O)C(=O)N[C@@H](Cc1ccccc1)C(=O)N[C@H](C(=O)N[C@H](CCC(=O)O)C(=O)N[C@@](C)(Cc1ccc(O)cc1)C(=O)N[C@@H](CC(C)C)C(=O)N[C@H](C(=O)N[C@@H](CCCCNC(=O)COCCOCCNC(=O)COCCOCCNC(=O)CC[C@H](NC(=O)CCCCCCCCCCCCC(=O)O)C(=O)O)C(=O)NCC(=O)NCC(=O)N1CCC[C@H]1C(=O)N[C@@H](CO)C(=O)N[C@@H](CO)C(=O)NCC(=O)N[C@@H](C)C(=O)N1CCC[C@H]1C(=O)N1CCC[C@H]1C(=O)N1CCC[C@H]1C(=O)N[C@@H](CO)C(N)=O)[C@@H](C)CC)[C@@H](C)CC [Example 263] | 72.7 | > 9950 | 56.7 | 88.6 | 0.0214 | > 9950 | 95.8 | 98.5 | 0.294

Reference: patent US20230265151A1, “GIP/GLP1 CO-AGONIST COMPOUNDS” (priority 2020, published 2023)
